Measurements published in PubChem BioAssay (NCI).
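Step 1: Grow cells in 96-well plates. Step 2: Expose to compound for 48 hours at 5 concentrations. Step 3: Interpolate endpoints linearly; if unreached, use highest concentration. At the TGI there is no net growth.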

Tests used:
Test in all cases: NCI anticancer screen, dose series, 48 h
ACHN renal = system: ACHN renal
MDA-MB-231 breast = system: MDA-MB-231 breast
OVCAR-5 ovarian = system: OVCAR-5 ovarian
NCI-H23 lung = system: NCI-H23 lung
NCI-H460 lung = system: NCI-H460 lung
RPMI-8226 leukemia = system: RPMI-8226 leukemia
HOP-62 NSCLC = system: HOP-62 NSCLC
T-47D breast = system: T-47D breast
HOP-92 NSCLC = system: HOP-92 NSCLC
OVCAR-4 ovarian = system: OVCAR-4 ovarian
MOLT-4 leukemia = system: MOLT-4 leukemia
HCT-116 colon = system: HCT-116 colon
CCRF-CEM leukemia = system: CCRF-CEM leukemia
SK-MEL-28 melanoma = system: SK-MEL-28 melanoma
SN12C renal = system: SN12C renal
NCI-H226 lung = system: NCI-H226 lung
MCF7 breast = system: MCF7 breast
SF-539 CNS = system: SF-539 CNS
SK-MEL-5 melanoma = system: SK-MEL-5 melanoma
BT-549 breast = system: BT-549 breast

| Compound | TGI (ACHN renal) [µM] | TGI (MDA-MB-231 breast) [µM] | TGI (OVCAR-5 ovarian) [µM] | TGI (NCI-H23 lung) [µM] | TGI (NCI-H460 lung) [µM] | TGI (RPMI-8226 leukemia) [µM] | TGI (HOP-62 NSCLC) [µM] | TGI (T-47D breast) [µM] | TGI (HOP-92 NSCLC) [µM] | TGI (OVCAR-4 ovarian) [µM] | TGI (MOLT-4 leukemia) [µM] | TGI (HCT-116 colon) [µM] | TGI (CCRF-CEM leukemia) [µM] | TGI (SK-MEL-28 melanoma) [µM] | TGI (SN12C renal) [µM] | TGI (NCI-H226 lung) [µM] | TGI (MCF7 breast) [µM] | TGI (SF-539 CNS) [µM] | TGI (SK-MEL-5 melanoma) [µM] | TGI (BT-549 breast) [µM] |
| --- | --- | --- | --- | --- | --- | --- | --- | --- | --- | --- | --- | --- | --- | --- | --- | --- | --- | --- | --- | --- |
| CC1CCCCN1CC(=O)c1ccc2c(c1)Sc1ccccc1O2 (centres undefined) | 28.8 | 54.6 | 34.5 | 30.3 | 29.7 | > 100 | 30.7 | 48 | 30.5 | 28.6 | > 100 | 30.7 | 44.4 | 33.1 | 37.9 | 26.4 | 33.6 | 34 | – | – |
| CCCCc1ccc(-n2sc3ncc([N+](=O)[O-])cc3c2=O)cc1 | 28 | 23.5 | 40.6 | 24.1 | 25.3 | 32.5 | 36.7 | 25.9 | – | 35.2 | 53.7 | 21 | 32.4 | 50.7 | 32.7 | 51.4 | 40.5 | 39.7 | 27.7 | 33.9 |
| O=C1CCCC(=O)N1n1c(Cc2ccccc2)n[nH]c1=O | > 100 | > 100 | > 100 | > 100 | – | > 100 | > 100 | > 100 | > 100 | > 100 | > 100 | > 100 | > 100 | > 100 | > 100 | > 100 | > 100 | – | > 100 | > 100 |
| Cc1nc2c(cc1C(=O)N/N=C/c1ccc([N+](=O)[O-])cc1)c(=O)n(C)c(=O)n2C | > 100 | 65.7 | > 100 | > 100 | > 100 | > 100 | 35.8 | > 100 | – | > 100 | > 100 | > 100 | > 100 | > 100 | > 100 | > 100 | > 100 | – | > 100 | > 100 |
| CSc1c(C(=O)Nc2ccc(C)cc2)c(N)n(N)c(=O)c1C#N | – | > 100 | > 100 | > 100 | > 100 | > 100 | – | > 100 | – | > 100 | > 100 | > 100 | > 100 | > 100 | > 100 | > 100 | > 100 | > 100 | > 100 | > 100 |
| CCOC(=O)/C(N=Nc1ccc(-n2c(C)nc3ccc(Br)cc3c2=O)cc1)=C(/C)O | > 100 | > 100 | > 100 | > 100 | > 100 | > 100 | > 100 | > 100 | > 100 | – | > 100 | > 100 | > 100 | > 100 | > 100 | > 100 | > 100 | > 100 | 31.9 | > 100 |
| COc1cc2c(cc1OC)CN1CCCc3cc(OC)c(OC)cc3C1C2 (centres undefined) | > 100 | > 100 | > 100 | > 100 | > 100 | – | > 100 | > 100 | > 100 | > 100 | > 100 | > 100 | > 100 | > 100 | > 100 | 96.1 | 95.2 | 50.1 | > 100 | > 100 |
| COc1ccc(-c2nnc3n(Cc4ccccc4)c4ccccc4n3c2=O)cc1 | 99.5 | > 100 | > 100 | > 100 | > 100 | – | 12.2 | > 100 | 95 | 43.6 | > 100 | > 100 | > 100 | > 100 | > 100 | 97.4 | > 100 | 34.3 | > 100 | > 100 |
| O=c1c(C2=NCCC2)c(-c2ccc[nH]2)[nH]n1-c1ccccc1 | > 100 | > 100 | > 100 | > 100 | > 100 | > 100 | – | > 100 | > 100 | > 100 | > 100 | > 100 | > 100 | > 100 | > 100 | > 100 | – | > 100 | > 100 | > 100 |
| O=c1oc2ccccc2c(O)c1/C=N/C(=S)NCc1ccccc1 | > 100 | > 100 | > 100 | > 100 | > 100 | – | > 100 | > 100 | > 100 | > 100 | > 100 | > 100 | – | > 100 | > 100 | > 100 | > 100 | > 100 | > 100 | 41.5 |
| Cc1ccc(N=C2S/C(=C3/CCC=C3N3CCOCC3)N(c3ccc(Cl)cc3)C2=Nc2ccc(C)cc2)cc1 | > 100 | > 100 | > 100 | > 100 | > 100 | > 100 | > 100 | > 100 | > 100 | – | > 100 | > 100 | – | > 100 | > 100 | > 100 | > 100 | – | > 100 | > 100 |
| OC(c1cc2ccccc2[nH]1)C1(c2cccnc2)SCCCS1 (centres undefined) | > 100 | > 100 | > 100 | > 100 | > 100 | – | > 100 | > 100 | > 100 | > 100 | > 100 | > 100 | – | > 100 | > 100 | > 100 | > 100 | – | > 100 | > 100 |
| CCOC(=O)C1C(c2ccc(O)c(OC)c2)c2c([nH][nH]c2=O)CC1(C)O (centres undefined) | > 100 | > 100 | > 100 | > 100 | – | > 100 | > 100 | > 100 | > 100 | > 100 | > 100 | > 100 | > 100 | > 100 | > 100 | – | > 100 | > 100 | > 100 | – |
